Assay results reported in patent US8415376B2, “Inhibitors of PI3 kinase” (Amgen Inc., priority 2008, dated 2013).

Experiments:
[1] = target: T1, PI3Kβ (Homo sapiens, UniProt P42338); assay: In vitro PI3 kinase enzyme assay (PI3K ATP loss), beta; format: biochemical; conditions: average if run more than once
T1 construct: Full length p110 subunits of PI3K α, β and δ, N-terminally labeled with polyHis tag; polyHis (N); made in house; host or cells: Sf9 insect cells (baculovirus)

[2] = target: T2, PI3Kα (Homo sapiens, UniProt P42336); assay: In vitro PI3 kinase enzyme assay (PI3K ATP loss), alpha; format: biochemical; conditions: average if run more than once; read-out: ATP Loss (PBKα) IC50 μM (Avg)
T2 construct: Full length p110 subunits of PI3K α, β and δ, N-terminally labeled with polyHis tag; polyHis (N); made in house; host or cells: Sf9 insect cells (baculovirus)
Description: Full length p110 subunits of PI3K α, β and δ, N-terminally labeled with polyHis tag, can be co-expressed with p85 with Baculo virus expression vectors in sf9 insect cells. P110/p85 heterodimers can be purified by sequential Ni-NTA, Q-HP, Superdex-100 chromatography. Purified α, β and δ isozymes can be stored at −20° C. in 20 mM Tris, pH 8, 0.2M NaCl, 50% glycerol, 5 mM DTT, 2 mM Na cholate. […] The γ isozyme can be purified by sequential Ni-NTA, Superdex-200, Q-HP chromatography. The γ isozyme can be stored frozen at −80° C. in NaH2PO4, pH 8, 0.2M NaCl, 1% ethylene glycol, 2 mM β-mercaptoethanol.
In Vitro PI3 Kinase Enzyme Assays (PI3K Atploss)
PI3K enzyme assays (alpha, beta, delta and gamma) can be performed in 25 μL with the above final concentrations of components in white polyproplyene plates. Phosphatidyl inositol phosphoacceptor, PtdIns(4,5)P2 (eg. P4508) can be obtained from Echelon Biosciences, Salt Lake City, Utah. […] Test compounds can be dissolved in DMSO and diluted with three-fold serial dilutions. The compound in DMSO (1 μL) may be added per test well, and the inhibition relative to reactions containing no compound, with and without enzyme can be determined After assay incubation at RT, the reaction can be stopped and residual ATP can be determined by addition of an equal volume of a commercial ATP bioluminescence kit (Perkin Elmer EasyLite, Perkin Elmer, Waltham, Mass.) according to the manufacturer's instructions, and detected using an Analyst GT luminometer.

[3] = tested on: phosphorylation of Akt at Ser473; assay: Cell-based phospho-Akt Ser473 assay (HCT116 cell); conditions: HCT 116 human colon carcinoma cells, IGF-1 stimulated; average
Method in brief: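 HCT116 human colon carcinoma cells, 16,000/well, were treated with compounds in a 10-point 3-fold series for 2 h at 37 °C in McCoy's with 0.1% BSA. They were then stimulated with IGF-1 at 100 ng/ml for 15 min. Phospho-Akt Ser473 in lysates was measured by MSD electrochemiluminescent sandwich immunoassay, and IC50 came from dose-response.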

[4] = target: T3, mTOR (Homo sapiens, UniProt P42345); assay: In vitro mTOR assay (Lanthascreen); format: biochemical; conditions: average if run more than once
T3 construct: purchased Invitrogen (Carlsbad, Calif.)
Excerpt: The Invitrogen (Carlsbad, Calif.) mammalian target of rapamycin (mTOR) Lanthascreen assay can be used to quantitate mTOR kinase activity in an in vitro setting. Active mTOR phosphorylates eukaryotic translation initiation factor 4E binding protein 1 (4E-BP1) on residue threonine 46. This phosphorylation event can be detected with a phospho-specific terbium (Tb) labeled Ab, in turn bringing the Tb label in close proximity to the GFP tagged 4E-BP1 and allowing for time-resolved fluorescence resonance energy transfer (TR-FRET), which correlates 4E-BP1 phosphorylation levels with mTOR kinase activity.
Enzyme reaction buffer can be prepared in deionized water containing 50 mM HEPES (pH 7.5), 0.01% Polysorbate 20, 1 mM EGTA, and 10 mM MnCl2.
Dilutions of the compound to be tested can be prepared in 96-well polypropylene plates (Fisher Scientific, Waltham, Mass.). One row represents a 10-point dose of compound diluted 1:3 in enzyme reaction buffer and 20% dimethyl sulfoxide (DMSO). The top concentration for all compounds is 36 μM. Wells 6 and 12 can serve as the no compound (DMSO only) and high compound controls.
An mTOR substrate solution can prepared in enzyme reaction buffer containing 1600 nM green fluorescent protein tagged eukaryotic translation initiation factor 4E binding protein 1 (GFP-4E-BP1) (Invitrogen, Carlsbad, Calif.) and 28 uM adenosine triphosphate (ATP) (Calbiochem, Gibbstown, N.J.).
mTOR enzyme (Invitrogen, Carlsbad, Calif.) can be diluted in enzyme reaction buffer to a working concentration of 100 ng/mL.
The enzyme assay can be run in 384 well low volume assay plates (Corning, Corning, N.Y.). 2.5 uL of substrate solution containing GFP-4E-BP1 and ATP can be added to appropriate wells in the assay plate followed by 2.5 μL of compound dilutions. 5 μL of appropriately diluted mTOR enzyme can be added and the reaction allowed to proceed for 1 hour at room temperature. Final reagent concentrations in the enzyme assay are 50 ng/mL mTOR, 400 nM GFP-4E-BP1, and 7 μM ATP.
The enzyme assay can be terminated upon the addition of 10 μL of 20 mM EDTA and 4 nM Tb-labeled anti-phospho-4E-BP1 [T46] antibody (Invitrogen, Carlsbad, Calif.). The assay plate can then be incubated at room temperature for 1 hour and results read on a Tecan Safire II plate reader (Tecan, Männedorf, Switzerland).

[5] = tested on: phosphorylation of Akt at Serine 473; assay: pAkt AlphaScreen (U87 cell); format: cell-based; conditions: Homo sapiens, U-87 MG; U87 MG cells, pAkt Ser473; average
Description: pAkt Alphascreen (U87 Cell)
The pAkt AlphaScreen® assay (PerkinElmer, Waltham, Mass.) determines whether there is phosphorylation of Akt at Serine 473 by recruitment of a phosphospecific antibody. This assay was performed using U87 MG cells. The U87 growth media consists of MEM (Gibco, Carlsbad, Calif.) supplemented with 10% FBS (Gibco,), 1× Non-Essential Amino Acids (Gibco,) and 1× Penicillin/Streptomycin/Glutamine (Gibco). The cells were maintained weekly using 0.05% Trypsin (Gibco) and replated in 150 mm TC-Treated Culture Dishes (Corning, Corning, N.Y.).
The first day of the assay, the adherent cells were trypsinized, media was added to the loose cells and cells were mixed to a homogenous mixture. 0.5 ml of the homogenous mixture was counted on the Beckman Coulter® Vi-CELL™ XR (Fullerton, Calif.). 50 frames of cells were counted and the number of viable cells was determined. The cells were then diluted to 0.25 million cells per ml, and centrifuged at 200 rcf for 5 minutes. The media was removed and the cells were reconstituted in fresh media for plating. The cells were plated at 20 μl per well on the PerkinElmer® FlexDrop PLUS in Low Volume 384 Well White Tissue Culture Plates (Corning) with a final cell density of 5K cells per well. The plates were incubated overnight at 37° Celsius, 5% CO2.
On the second day, the compound plates were prepared, the cells were treated with compound and the pAkt reaction mix was added to the cell lysate. 384 well compound plates were prepared containing 1 μl of compound per well starting at 5 mM and diluted 1:2 across the row, resulting in a 22 well serial dilution. 39 μl of growth media was added to the compound plate in rows 1-22 using the PerkinElmer® FlexDrop PLUS resulting in a DMSO concentration of 2.5%. The cell plates and diluted compound plates were put onto the VELOCITY11™ VPREP™ 384 ST where the compound plate was mixed and 5 μl of serially diluted compound or controls was added to the cell plate. The final concentration of the compounds was 25 μM serially diluted to 11.9 pM in 0.5% DMSO. The cell plates were then incubated with compound for two hours at 37° Celsius, 5% CO2. After two hours, the media in the cell plates was aspirated using the BioTek® ELx405HT plate washer (Winooski, Vt.) removing the majority of media and compound without disturbing the adherent U87 cells. The following assay reagents are components of the SureFire® Akt (Ser 473) Phosphorylation 50K Point Kit (TGR BioSciences, Adelaide, Austalia) and an IgG Detection Kit (PerkinElmer, Waltham, Mass.). 5 μl of 1× Lysis Buffer was added to each well using the PerkinElmer® FlexDrop PLUS. The plates were then incubated at room temperature on a shaker for ten minutes. The AlphaScreen® reaction was prepared under low light conditions (subdued or green light) including p-Akt (Ser 473) Reaction Buffer, Dilution Buffer, Activation Buffer, Acceptor Beads and Donor Beads at a ratio of 40:20:10:1:1 respectively. The AlphaScreen® reaction was added to the cell lysate at 6 μl per well using the PerkinElmer® FlexDrop PLUS. The plates were placed in a humid environment to reduce edge effects and incubated overnight at room temperature with restricted air flow in the dark.
On the final day of the experiment, the plates were read on the PerkinElmer® EnVision™ 2103 Multilable Reader using the standard AlphaScreen® readout. The POC is calculated and the data is analyzed to report the IC50 IP for pAkt at Serine 473.
Activity data for the compounds tested in the PI3K cell based Akt assay is provided in Table 2 under the column heading U87

[6] = target: T2, PI3Kα; assay: In vitro PI3K AlphaScreen assay; format: biochemical; conditions: average if run more than once

T2 sequence (P42336 whole entry): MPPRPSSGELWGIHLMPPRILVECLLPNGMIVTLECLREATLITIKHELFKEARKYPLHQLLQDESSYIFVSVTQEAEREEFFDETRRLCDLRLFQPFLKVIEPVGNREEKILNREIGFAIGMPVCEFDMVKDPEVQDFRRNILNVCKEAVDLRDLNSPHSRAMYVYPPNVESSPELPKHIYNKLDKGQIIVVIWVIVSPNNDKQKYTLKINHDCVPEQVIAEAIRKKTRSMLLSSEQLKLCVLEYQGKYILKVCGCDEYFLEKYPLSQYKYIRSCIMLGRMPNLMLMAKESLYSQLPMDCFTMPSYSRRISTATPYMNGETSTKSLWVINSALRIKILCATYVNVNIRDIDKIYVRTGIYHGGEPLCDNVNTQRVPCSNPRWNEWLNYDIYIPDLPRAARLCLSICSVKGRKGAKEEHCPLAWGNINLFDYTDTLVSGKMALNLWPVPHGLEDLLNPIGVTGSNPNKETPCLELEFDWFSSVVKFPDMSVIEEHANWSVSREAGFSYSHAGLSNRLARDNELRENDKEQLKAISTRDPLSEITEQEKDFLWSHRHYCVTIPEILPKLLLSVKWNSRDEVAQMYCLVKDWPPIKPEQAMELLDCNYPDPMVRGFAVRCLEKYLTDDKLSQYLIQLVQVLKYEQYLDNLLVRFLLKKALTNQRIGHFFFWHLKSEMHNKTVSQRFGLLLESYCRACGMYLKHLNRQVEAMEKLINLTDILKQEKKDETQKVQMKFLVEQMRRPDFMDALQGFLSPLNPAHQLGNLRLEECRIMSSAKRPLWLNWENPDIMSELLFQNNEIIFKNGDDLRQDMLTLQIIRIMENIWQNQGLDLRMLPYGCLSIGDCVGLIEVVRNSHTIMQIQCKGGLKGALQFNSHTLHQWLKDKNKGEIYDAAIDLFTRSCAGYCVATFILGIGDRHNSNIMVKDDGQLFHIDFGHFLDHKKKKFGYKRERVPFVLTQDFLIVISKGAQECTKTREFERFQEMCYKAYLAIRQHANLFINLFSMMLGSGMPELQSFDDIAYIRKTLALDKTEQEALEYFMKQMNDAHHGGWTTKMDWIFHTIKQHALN
T2 sequence (P27986 whole entry partner): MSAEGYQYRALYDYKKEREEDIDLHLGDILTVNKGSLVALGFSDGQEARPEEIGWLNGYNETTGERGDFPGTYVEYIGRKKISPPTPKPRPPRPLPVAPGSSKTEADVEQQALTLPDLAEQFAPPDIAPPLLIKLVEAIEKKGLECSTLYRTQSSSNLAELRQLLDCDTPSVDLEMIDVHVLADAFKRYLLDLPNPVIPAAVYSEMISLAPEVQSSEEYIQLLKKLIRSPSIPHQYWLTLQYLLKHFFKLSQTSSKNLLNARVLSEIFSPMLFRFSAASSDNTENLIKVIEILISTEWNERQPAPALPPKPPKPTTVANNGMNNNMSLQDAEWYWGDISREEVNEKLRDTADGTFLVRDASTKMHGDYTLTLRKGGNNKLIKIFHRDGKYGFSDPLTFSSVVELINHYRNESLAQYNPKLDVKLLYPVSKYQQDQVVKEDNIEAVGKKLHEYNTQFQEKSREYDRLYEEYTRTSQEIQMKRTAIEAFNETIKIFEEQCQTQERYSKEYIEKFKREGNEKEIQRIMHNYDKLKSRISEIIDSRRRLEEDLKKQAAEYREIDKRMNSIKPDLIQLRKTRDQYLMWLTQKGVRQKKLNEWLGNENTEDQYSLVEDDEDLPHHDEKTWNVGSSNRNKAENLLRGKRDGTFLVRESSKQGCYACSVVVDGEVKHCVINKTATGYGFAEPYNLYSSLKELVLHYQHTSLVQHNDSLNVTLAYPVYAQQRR
T3 sequence (P42345 1360-2549 limits assumed): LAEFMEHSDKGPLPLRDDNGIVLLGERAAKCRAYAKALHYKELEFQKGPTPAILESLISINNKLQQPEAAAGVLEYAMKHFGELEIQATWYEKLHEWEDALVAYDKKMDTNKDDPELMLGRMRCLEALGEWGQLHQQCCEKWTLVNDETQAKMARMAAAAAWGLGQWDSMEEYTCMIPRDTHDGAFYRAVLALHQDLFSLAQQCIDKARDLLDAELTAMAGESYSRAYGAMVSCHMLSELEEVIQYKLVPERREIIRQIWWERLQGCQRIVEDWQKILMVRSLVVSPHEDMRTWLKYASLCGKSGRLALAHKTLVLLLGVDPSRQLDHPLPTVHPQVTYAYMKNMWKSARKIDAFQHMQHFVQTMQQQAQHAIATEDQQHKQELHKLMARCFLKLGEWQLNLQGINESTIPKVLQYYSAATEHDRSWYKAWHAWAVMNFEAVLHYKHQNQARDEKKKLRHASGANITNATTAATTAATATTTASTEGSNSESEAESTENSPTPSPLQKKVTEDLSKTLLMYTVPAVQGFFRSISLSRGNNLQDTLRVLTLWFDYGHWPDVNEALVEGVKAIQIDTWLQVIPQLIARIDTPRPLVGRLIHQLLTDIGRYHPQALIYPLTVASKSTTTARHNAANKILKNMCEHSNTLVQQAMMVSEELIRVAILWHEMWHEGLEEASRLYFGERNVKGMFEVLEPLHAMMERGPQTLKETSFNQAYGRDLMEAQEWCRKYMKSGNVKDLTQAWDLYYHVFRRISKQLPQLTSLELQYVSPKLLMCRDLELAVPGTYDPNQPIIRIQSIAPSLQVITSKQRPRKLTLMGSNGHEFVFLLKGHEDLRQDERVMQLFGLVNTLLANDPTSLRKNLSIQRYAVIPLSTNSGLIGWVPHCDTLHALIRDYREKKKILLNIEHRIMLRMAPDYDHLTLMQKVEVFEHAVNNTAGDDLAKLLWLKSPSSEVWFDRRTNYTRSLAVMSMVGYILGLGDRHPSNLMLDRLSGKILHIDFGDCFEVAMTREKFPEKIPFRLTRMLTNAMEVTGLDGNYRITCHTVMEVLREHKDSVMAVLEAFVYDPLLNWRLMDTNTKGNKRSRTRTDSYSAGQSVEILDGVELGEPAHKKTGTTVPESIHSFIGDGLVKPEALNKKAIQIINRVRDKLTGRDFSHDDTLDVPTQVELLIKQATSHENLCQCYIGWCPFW
T1 sequence (P42338 whole entry): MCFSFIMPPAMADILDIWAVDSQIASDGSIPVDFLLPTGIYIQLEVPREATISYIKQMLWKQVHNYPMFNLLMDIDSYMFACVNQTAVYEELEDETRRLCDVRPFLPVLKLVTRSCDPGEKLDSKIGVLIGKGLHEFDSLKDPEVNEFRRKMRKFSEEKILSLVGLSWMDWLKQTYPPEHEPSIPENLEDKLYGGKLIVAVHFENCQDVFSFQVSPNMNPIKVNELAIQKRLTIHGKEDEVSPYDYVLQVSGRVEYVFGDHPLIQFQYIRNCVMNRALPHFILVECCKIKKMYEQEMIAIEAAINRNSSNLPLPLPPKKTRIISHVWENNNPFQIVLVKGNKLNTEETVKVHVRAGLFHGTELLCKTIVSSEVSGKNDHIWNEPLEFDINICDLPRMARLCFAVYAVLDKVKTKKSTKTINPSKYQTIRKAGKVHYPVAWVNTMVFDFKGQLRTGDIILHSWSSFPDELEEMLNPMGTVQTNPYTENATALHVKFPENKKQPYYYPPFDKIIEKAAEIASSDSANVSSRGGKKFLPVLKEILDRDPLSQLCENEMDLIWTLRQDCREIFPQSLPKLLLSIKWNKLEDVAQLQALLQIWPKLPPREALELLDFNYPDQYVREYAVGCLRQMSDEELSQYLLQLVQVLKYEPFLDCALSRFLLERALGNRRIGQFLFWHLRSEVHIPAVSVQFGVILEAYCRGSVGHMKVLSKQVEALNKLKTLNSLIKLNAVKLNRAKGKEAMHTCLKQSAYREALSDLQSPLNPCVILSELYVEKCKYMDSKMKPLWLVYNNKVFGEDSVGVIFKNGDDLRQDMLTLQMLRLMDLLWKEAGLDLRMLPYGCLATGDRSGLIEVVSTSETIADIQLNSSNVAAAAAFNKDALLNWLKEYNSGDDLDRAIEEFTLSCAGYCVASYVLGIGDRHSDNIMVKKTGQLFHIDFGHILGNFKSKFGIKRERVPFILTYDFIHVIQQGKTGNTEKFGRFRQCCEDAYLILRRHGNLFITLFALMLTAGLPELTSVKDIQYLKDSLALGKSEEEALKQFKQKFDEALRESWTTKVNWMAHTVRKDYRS
T1 sequence (P27986 whole entry partner): as the sequence (P27986 whole entry partner) above

Row | Structure (SMILES) | IC50 [1] [µM] | IC50 [2] [µM] | IC50 [3] [µM] | IC50 [4] [µM] | IC50 [5] [µM] | Ki [6] [µM]
1 | COCC1CCCN1c1cnc2ccc(-c3cnc(Cl)c(NS(=O)(=O)c4ccc(F)cc4)c3)cc2n1 (stereo not shown) [Example 68, N-(2-chloro-5-(3-(2-(methoxymethyl)-1-pyrrolidinyl)-6-quinoxalinyl)-3-pyridinyl)-4-fluorobenzenesulfonamide] | 0.0358 | 0.0081 | 0.0434 |  |  | 
2 | CN(CC#N)c1cnc2ccc(-c3cnc(Cl)c(NS(=O)(=O)c4ccc(F)cc4)c3)cc2n1 [Example 71, N-(2-chloro-5-(3-((cyanomethyl)(methyl)amino)-6-quinoxalinyl)-3-pyridinyl)-4-fluorobenzenesulfonamide] | 0.0934 | 0.0188 | 0.0893 |  |  | 
3 | O=S(=O)(Nc1cc(-c2ccc3ncc(N4CCNCC4)nc3c2)cnc1Cl)c1ccc(F)cc1 [Example 72, N-(2-chloro-5-(3-(1-piperazinyl)-6-quinoxalinyl)-3-pyridinyl)-4-fluorobenzenesulfonamide] | 0.01 | 0.0049 | 0.0168 |  |  | 
4 | O=S(=O)(Nc1cc(-c2ccc3ncc(NCC4CCCNC4)nc3c2)cnc1Cl)c1ccc(F)cc1 (stereo not shown) [Example 74, N-(2-chloro-5-(3-((3-piperidinylmethyl)amino)-6-quinoxalinyl)-3-pyridinyl)-4-fluorobenzenesulfonamide] | 0.0463 | 0.0192 | 2.63 |  |  | 
5 | O=S(=O)(Nc1cc(-c2ccc3nccc(N4CCN(Cc5ccncc5)CC4)c3c2)cnc1Cl)c1ccc(F)cc1 [Example 89, N-(2-chloro-5-(4-(4-(4-pyridinylmethyl)-1-piperazinyl)-6-quinolinyl)-3-pyridinyl)-4-fluorobenzenesulfonamide] |  |  |  | 0.0039 | 0.0223 | 
6 | O=S(=O)(Nc1cc(-c2ccc3ncc(NCCN4CCOCC4)nc3c2)cnc1Cl)c1ccc(F)cc1 [Example 91, N-(2-chloro-5-(3-((2-(4-morpholinyl)ethyl)amino)-6-quinoxalinyl)-3-pyridinyl)-4-fluorobenzenesulfonamide] |  |  |  | 0.0053 | 0.075 | 
7 | O=S(=O)(Nc1cc(-c2ccc3nccc(-c4cccnc4)c3c2)cnc1Cl)c1ccc(F)cc1 [Example 93, N-(2-chloro-5-(4-(3-pyridinyl)-6-quinolinyl)-3-pyridinyl)-4-fluorobenzenesulfonamide] |  |  |  | 0.0016 | 0.0119 | 
8 | O=S(=O)(Nc1cc(-c2ccc3nccc(N4CCCC(O)CC4)c3c2)cnc1Cl)c1ccc(F)cc1 (stereo not shown) [Example 95, N-(2-chloro-5-(4-(4-hydroxy-1-azepanyl)-6-quinolinyl)-3-pyridinyl)-4-fluorobenzenesulfonamide] |  |  |  | 0.111 |  | 0.0058
9 | COCC(C)Nc1ccnc2ccc(-c3cnc(Cl)c(NS(=O)(=O)c4ccc(F)cc4)c3)cc12 (stereo not shown) [Example 99, N-(2-chloro-5-(4-((2-methoxy-1-methylethyl)amino)-6-quinolinyl)-3-pyridinyl)-4-fluorobenzenesulfonamide] |  |  |  | 2.39 |  | 0.121
10 | O=S(=O)(Nc1cc(-c2ccc3nccc(OCC4CCSCC4)c3c2)cnc1Cl)c1ccc(F)cc1 [Example 100, N-(2-chloro-5-(4-(tetrahydro-2H-thiopyran-4-ylmethoxy)-6-quinolinyl)-3-pyridinyl)-4-fluorobenzenesulfonamide] |  |  |  | 0.04 |  | 0.0012
11 | CS(=O)(=O)Nc1cc(-c2ccc3nccc(C4CCOCC4)c3c2)cnc1Cl [Example 114, N-(2-Chloro-5-(4-(tetrahydro-2H-pyran-4-yl)quinolin-6-yl)pyridin-3-yl)methanesulfonamide] |  |  |  | 0.0063 | 0.0254 | 
12 | O=S1(=O)CCC(Oc2ccnc3ccc(-c4cnc(Cl)c(NS(=O)(=O)c5ccc(F)cc5)c4)cc23)C1 (stereo not shown) [Example 115, N-(2-Chloro-5-(4-(tetrahydrothiophen-1,1-dioxide-3-yloxy)quinolin-6-yl)pyridin-3-yl)-4-fluorobenzenesulfonamide] |  |  |  | 0.0126 | 0.194 | 
13 | O=S(=O)(Nc1cc(-c2ccc3ncc(-c4ccncc4)nc3c2)cnc1Cl)c1ccc(F)cc1 [Example 121, N-(2-Chloro-5-(3-(pyridin-4-yl)quinoxalin-6-yl)pyridin-3-yl)-4-fluorobenzenesulfonamide] |  |  |  | 0.0057 | 0.031 | 
14 | COc1ccc(S(=O)(=O)Nc2cc(-c3ccc4c(c3)OCCO4)cnc2Cl)cc1 [Example 127, N-(2-Chloro-5-(2,3-dihydrobenzo[b][1,4]dioxin-6-yl)pyridin-3-yl)-4-methoxybenzenesulfonamide] |  |  |  | 0.0651 |  | 0.0273
15 | O=C1COc2ccc(-c3cnc(Cl)c(NS(=O)(=O)c4ccc(F)cc4)c3)cc2N1 [Example 129, N-(2-Chloro-5-(3-oxo-3,4-dihydro-2H-benzo[b][1,4]oxazin-6-yl)pyridin-3-yl)-4-fluorobenzenesulfonamide] |  |  |  |  |  | 0.0858
16 | O=S(=O)(Nc1cc(N2CCc3ncccc3C2)cnc1Cl)c1ccc(F)cc1 [Example 135, N-(2-Chloro-5-(7,8-dihydro-1,6-naphthyridin-6(5H)-yl)pyridin-3-yl)-4-fluorobenzenesulfonamide] |  |  |  | 0.218 |  | 0.0638
17 | O=c1c2cccnc2ccn1-c1cnc(Cl)c(NS(=O)(=O)c2ccc(F)cc2)c1 [Example 137, N-(2-chloro-5-(5-oxo-1,6-naphthyridin-6(5H)-yl)-3-pyridinyl)-4-fluorobenzenesulfonamide] |  |  |  |  | 2.98 | 0.548
